Consider 58 compounds from the METLIN SMRT retention time set (Domingo-Almenara et al. 2019).

The nature of the data set: gradient 5% acetonitrile 3 min, to 50% in 2 min, to 85% in 15 min, held 3 min, 100 µL/min. The following applies: column: Zorbax Extend-C18 2.1 x 50 mm; eluents: water / acetonitrile, 0.1% formic acid. The method in brief: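 Pure standards were run in mixtures of ~100 molecules by HPLC coupled to a quadrupole time-of-flight mass spectrometer. The column was a Zorbax Extend-C18 (2.1 × 50 mm, 1.8 μm) at 100 μL/min, with water and acetonitrile each containing 0.1% formic acid, in positive and negative ionization mode. Dead and dwell volumes were 40 μL and 900 μL. Retention time was taken from computationally picked adduct peaks, each manually inspected, with data collected over 3 months.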
In the case of `Cc1ccc2[nH]cc(CCN3CC(C(=O)Nc4ccc(C)c(C)c4)CC3=O)c2c1` (stereo not drawn), the RP-LC retention time came out at 910 s.

Take `Cc1c(F)cccc1NC(=O)N1CCN(C2=CC3=NC(C)CN3C=N2)CC1` (stereo not drawn): the RP-LC retention time was found to be 649 s. As for `O=c1c2scc(-c3ccc(Cl)cc3)c2ncn1Cc1cc(=O)n2ccccc2n1`, the figure is 878 s; as for `CCOc1ccc(Cc2nc(-c3ccc4c(c3)nc(C)c(=O)n4C)no2)cc1OCC`, 970 s; as for `Cc1nn(Cc2ccc(C(=O)NCC3CC3)cc2)c(C)c1S(=O)(=O)N1CCC(C)CC1`, 888 s. As for `O=C([C@@H]1C[C@H](Oc2ccccc2)CN1C(=O)c1ccsc1)N1CCCC1`, the figure is 756 s; as for `O=c1c2cc(-c3ccc(F)cc3)nn2ccn1Cc1nc(-c2cccc(Br)c2)no1`, 1150 s; as for `O=C(Cn1c(=O)cc(-c2nc(C3CC3)no2)c2ccccc21)NCc1cccc(Cl)c1`, 979 s. Compound `CCCS(=O)(=O)c1nc2ccc(NS(=O)(=O)c3ccc(C(C)C)cc3)cc2s1` displayed an RP-LC retention time of 1050 s. As for `Cc1cc(Cl)ccc1OCc1nc(-c2ccc3c(c2)nnn3CCC(=O)N2CCCC2)no1`, the figure is 1050 s; as for `Cc1nc(Cn2cccc2C(=O)Nc2ccc(F)cc2F)no1`, 793 s; as for `Cc1noc(-c2ccnc(-n3ncc(C(=O)N4CCC(C)CC4)c3C)c2)n1`, 946 s. The same measure for `Cc1ccc(NC(=O)N2CCC3(CC2)NC(=O)c2ccccc2O3)cc1C`: 812 s.

Compound `Cc1ccc2c(c1)C(O)(CC(=O)c1cccc(-n3cccc3)c1)C(=O)N2` (stereo not drawn) gave an RP-LC retention time of 711 s.

For `CCCN(C)c1nccn2c(=O)n(CC(=O)Nc3cccc(Br)c3)nc12`, the RP-LC retention time came out at 730 s. Regarding `O=C(CC(c1ccccc1)c1ccccc1)NCC(O)c1cccs1` (stereo not drawn), the RP-LC retention time is 809 s. As for `COc1ccc(OC)c2c1cc1n2CC(C)(C(=O)NC2CCCCCCC2)N(CCN(C)C)C1=O` (stereo not drawn), the figure is 760 s.

As for `CCCCN(CC)C(=O)C1CCCN(c2ccc(-c3ccc(C)cc3)nn2)C1` (stereo not drawn), the RP-LC retention time is 796 s. The same measure for `Cc1cc(C)n(-c2ccnc(NCc3ccc(Cl)cc3)n2)n1`: 928 s. The same measure for `O=S(=O)(c1ccccc1F)N1CCc2nc(-c3ccccc3)ncc2C1`: 1010 s. As for `Cc1cc(N2CCC(NC(=O)Nc3ccc(F)cc3)C2=O)ccc1F` (stereo not drawn), the figure is 849 s; as for `COc1ccc(N2CC(c3noc(-c4ccc(C)c(C)c4)n3)CC2=O)cc1OC` (stereo not drawn), 983 s; as for `CCN1C(=O)c2cc(S(=O)(=O)Nc3cc(F)ccc3C)ccc2Oc2cccnc21`, 1030 s. `CCC(C)NC(=O)C1CCCN(C(=O)c2cc(-c3ccccn3)n[nH]2)C1` (stereo not drawn): the RP-LC retention time was determined as 611 s.

Regarding `CCCN(CC1CCOC1)C(=O)Nc1cccc(C(F)(F)F)c1` (stereo not drawn), the RP-LC retention time came to 922 s. The same measure for `COc1cc(C(=O)NC2CCN(c3cc(-c4ccccc4)[nH]n3)C2)cc(OC)c1OC` (stereo not drawn): 688 s; for `CCCNC(=O)C1CCN(Cc2cc3ccccc3n2Cc2ccc(Cl)cc2)CC1`: 768 s; for `Cc1ccccc1OCC(=O)N1CCN(c2nc(CN3CCCCC3)cs2)CC1`: 895 s. With `O=C(Nc1ccccc1F)N1CCN(Cc2nc3ccc(Cl)cc3o2)CC1`, the RP-LC retention time is 745 s. As for `O=C(Cn1cc(C(=O)C(=O)N2CCOCC2)c2ccccc21)NCc1ccc2c(c1)OCCCO2`, the figure is 704 s; as for `CCc1nc(OCC(=O)NCc2ccccc2)c2ccccc2n1`, 756 s. `CCC(=O)N1CCN(c2nc3c(s2)CC(C(=O)O)CC3)CC1` (stereo not drawn): the RP-LC retention time was determined as 578 s. As for `CCOC(=O)c1cnc2nc(C)ccc2c1Nc1ccc(OC)cc1OC`, the figure is 702 s; as for `CC(C)(C)NC(=O)NC1CCN(c2nc3cccnc3n(Cc3ccccc3)c2=O)CC1`, 995 s; as for `O=C(NCc1nc(-c2ccccc2)no1)C1CCN(Cc2nc3ccccc3[nH]2)CC1`, 581 s. With `CC1Cc2ccccc2N1C(=O)c1ccc(=O)n(CCC(=O)N2CCCCCC2)n1` (stereo not drawn), the RP-LC retention time came to 814 s. The compound `CCCCNC(=O)CSc1cc(N2CCC(C(=O)NC3CC3)CC2)ncn1` displayed an RP-LC retention time of 615 s. The compound `Cn1c(=O)c(N2CCC(C(=O)NCCN3CCCCCC3)CC2)nc2cccnc21` came in with an RP-LC retention time of 611 s.

In the case of `Cc1cc(N2CCN(c3ccccn3)CC2)n2nc(C)c(-c3ccc(F)cc3)c2n1`, the RP-LC retention time is 664 s. The same measure for `COCCN1CCn2cc(S(=O)(=O)Nc3ccc(Cl)cc3F)cc2C1=O`: 734 s; for `COc1ccc(-n2c(=O)n(C)c(=O)c3cc(C(=O)Nc4ccc(C)c(F)c4)cnc32)cc1`: 965 s.

Turning to `Cc1oc2cc3oc(=O)c(CC(=O)N4CCC(C(N)=O)CC4)c(C)c3cc2c1C`, the RP-LC retention time turned out to be 697 s. For `O=C([C@@H]1C[C@H](F)CN1C(=O)Cc1ccc(F)cc1)N1CCCCC1`, the RP-LC retention time was determined as 601 s. The same measure for `COc1ccc(-c2csc(NC(=O)Cn3c(=O)sc4ccccc43)n2)cc1`: 951 s; for `Cc1nncn1C1CCN(S(=O)(=O)c2ccc(CC(C)C)cc2)CC1`: 822 s; for `CCc1noc(-c2ccnc(-n3ncc(C(=O)N4CCC(C)CC4)c3C)c2)n1`: 1020 s. As for `COCCNc1c(-c2ccccc2)nc2sc(C(=O)N3CCOCC3)c(C)n12`, the figure is 722 s; as for `COc1ccc(CNC(=O)CN2C(=O)C3CCCCN3c3ccc(S(=O)(=O)N(C)C)cc32)cc1` (stereo not drawn), 887 s.

On to `COc1ccc(CCc2nc3nccc(-c4cccnc4)n3n2)cc1`, for which the RP-LC retention time came to 720 s. The same measure for `Cc1c(C(=O)N2CCN(C(=O)c3ccco3)CC2)[nH]c2ccccc12`: 729 s; for `COc1ccc(-n2ccn3cc(-c4ccc(F)cc4)nc3c2=O)cc1Cl`: 859 s; for `CC(=O)N1CCC(C(=O)N2CCN(S(=O)(=O)c3ccc4c(c3)sc(=O)n4C(C)C)CC2)CC1`: 727 s. The same measure for `CCn1c(=O)c2ccccc2n(Cc2nc(-c3ccc(Br)cc3)no2)c1=O`: 1110 s; for `Cc1cccc(C)c1NC(=O)Cn1nc(N2CCOCC2)c2ccccc2c1=O`: 744 s; for `Fc1ccc(OCc2nnc3sc(-c4ccccc4F)nn23)cc1`: 940 s.

Compound `CCc1nc2c(NC(=O)c3ccc(Cl)s3)cccn2n1` returned an RP-LC retention time of 941 s. As for `Cc1c(CNCCc2ccco2)c(C(=O)O)c(C)n1Cc1ccc(F)cc1`, the figure is 709 s; as for `CCn1c(=O)c2c(cc(C)n2C)n(CC(=O)Nc2ccc(C)cc2Cl)c1=O`, 871 s.
